We go through 2 compounds from article PMC5015216, “Change in decay rates of dioxin-like compounds in Yusho patients” (Environmental Health, 2016).

Where two headings read alike, the source gives them in different places.

The nature of data set [1]: Longitudinal blood concentration / body burden in Yusho cohort 2002-2010, second-order regression of log body burden. It counts as in vivo, human (Yusho patients). The source says:
The subjects were 354 patients whose blood concentration of 2,3,4,7,8-PeCDF had been measured three or more times at annual Yusho medical checkups between 2002 and 2010, i.e., 34–42 years since exposure, and for whom the period from the first to last measurement was over 4 years. We examined two chemicals: 2,3,4,7,8-PeCDF, which is the causative chemical, and octachlorodibenzodioxin (OCDD), which is a chemical found in Yusho patients but less commonly in the general public. This research was approved by Nara Medical University Ethics Committee (No. 281–2).
For the logarithm of body burden, which was calculated from concentration and weight, we examined the second derivative by second-order regression. The body burden Cit of patient i at time t is given by:1 logCit=βi+α1t+α2t^2+γ1w1it+γ2w2it
where t is the time, with t = 0 denoting 2006 (middle of the observation period), α2 is the coefficient for a second-order derivative, α1 is the first-order derivative at time t = 0, βi is the reference value for each individual, W1it is the weight and W2it is the lipid in blood (%) of patient i at time t, and γj is the coefficient for weight and lipid in blood. Aylward et al. used an estimate of body fat as volume of distribution, but we used weight and lipid in blood.
We combined all observed concentrations into equation (2):2 y=X⋅β+T⋅α+W⋅γ+ε
where y is the vector of the logarithm of dioxins and dioxin-like compounds in blood lipid concentration, Xβ is the base concentration for each patient, Tα is the change in time, Wγ is an adjustment term according to weight and lipid in blood, and ε is an observation error. X is a matrix with the total number of measurements rows and number of patient columns. T is a matrix with the total number of measurement rows and two columns, second-order and first-order for time. W is the matrix with the total number of measurement rows and two columns, weight and lipid. Equation (3) is a matrix form:3 y=XTWβαγ+ε
By solving multiple linear regressions with the lm function in R, we could estimate first- and second-order derivatives. It was assumed that patients in the same group had same trend with regard to time. […] For the case of one patient and no second-order coefficient measurements, equation (3) equals leads to an equation for estimation of decay rate:4 ka=lnCt2−lnCt1/Δt
We estimated the first- and second-order coefficients, equivalent to the decay rate and change in decay rate, for OCDD and 2,3,4,7,8-PeCDF for each patient group shown in Table 1.

For data set [2] the following is noted: cited from earlier work.
Setting [3] is: patient group 2,3,4,7,8-PeCDF concentration range 0–10 pg/g lipid.
The mark [4] stands for this setting: patient group concentration range 0–10 pg/g lipid.
The mark [5] stands for this setting: patient group concentration range 10–20 pg/g lipid.
Where [6] appears, read: patient group concentration range 20–50 pg/g lipid.
[7] abbreviates: patient group concentration range 50–100 pg/g lipid.
Setting [8] is: patient group concentration range >100 pg/g lipid.

For `Clc1c(Cl)c(Cl)c2c(c1Cl)Oc1c(Cl)c(Cl)c(Cl)c(Cl)c1O2` [OCDD, octachlorodibenzodioxin], the “Second-order coefficient (equivalent to minus change in apparent elimination rate in 2006)” value was −0.006366 in data set [1] (setting [3]); −0.003289 in data set [1] (setting [5]); −0.001897 in data set [1] (setting [6]); −0.002991 in data set [1] (setting [7]); −0.004341 in data set [1] (setting [8]). Moreover, the “First-order coefficient (equivalent to minus apparent elimination rate)” value in data set [1] (setting [4]) is −0.01433; in data set [1] (setting [5]) it was −0.01954; in data set [1] (setting [6]), −0.02054; in data set [1] (setting [7]), −0.01224; in data set [1] (setting [8]), −0.009034.

Turning to `Clc1cc2oc3c(Cl)c(Cl)c(Cl)cc3c2cc1Cl` [2,3,4,7,8-PeCDF, 2,3,4,7,8-pentachlorodibenzofuran], the “Second-order coefficient (equivalent to minus change in apparent elimination rate in 2006)” value is recorded as −0.000596 in data set [1] (setting [3]); 0.000464 in data set [1] (setting [5]); 0.000643 in data set [1] (setting [6]); 0.002124 in data set [1] (setting [7]); 0.001436 in data set [1] (setting [8]). Also, the “First-order coefficient (equivalent to minus apparent elimination rate)” value in data set [1] (setting [4]) is reported as −0.004032; in data set [1] (setting [5]), −0.000462; in data set [1] (setting [6]), 0.001669; in data set [1] (setting [7]), −0.005452; in data set [1] (setting [8]), −0.008294. The apparent half-life entry in data set [2] (Yusho patients with blood 2,3,4,7,8-PeCDF ≥50 pg/g lipid, first of two groups) was “≈ 10 years”; in data set [2] (Yusho patients, group that became larger since medical checkups began), “near infinite”; in data set [2] (Yusho patients, group that became smaller since medical checkups began) it was “around 10 years”. Also, the “change in blood levels over time” value in data set [2] (Yusho patients with blood 2,3,4,7,8-PeCDF ≥50 pg/g lipid, second of two groups) was “no reduction”.
